Data as given in patent publication US8563559B2 (Rigel Pharmaceuticals, Inc., priority 2006, dated 2013).
pIC50: −log10 of the molar value.

Target: T1, Axl (Homo sapiens, UniProt P30530)
T1 construct: endogenous in cells; host or cells: HeLa
T1 sequence (P30530 26-894): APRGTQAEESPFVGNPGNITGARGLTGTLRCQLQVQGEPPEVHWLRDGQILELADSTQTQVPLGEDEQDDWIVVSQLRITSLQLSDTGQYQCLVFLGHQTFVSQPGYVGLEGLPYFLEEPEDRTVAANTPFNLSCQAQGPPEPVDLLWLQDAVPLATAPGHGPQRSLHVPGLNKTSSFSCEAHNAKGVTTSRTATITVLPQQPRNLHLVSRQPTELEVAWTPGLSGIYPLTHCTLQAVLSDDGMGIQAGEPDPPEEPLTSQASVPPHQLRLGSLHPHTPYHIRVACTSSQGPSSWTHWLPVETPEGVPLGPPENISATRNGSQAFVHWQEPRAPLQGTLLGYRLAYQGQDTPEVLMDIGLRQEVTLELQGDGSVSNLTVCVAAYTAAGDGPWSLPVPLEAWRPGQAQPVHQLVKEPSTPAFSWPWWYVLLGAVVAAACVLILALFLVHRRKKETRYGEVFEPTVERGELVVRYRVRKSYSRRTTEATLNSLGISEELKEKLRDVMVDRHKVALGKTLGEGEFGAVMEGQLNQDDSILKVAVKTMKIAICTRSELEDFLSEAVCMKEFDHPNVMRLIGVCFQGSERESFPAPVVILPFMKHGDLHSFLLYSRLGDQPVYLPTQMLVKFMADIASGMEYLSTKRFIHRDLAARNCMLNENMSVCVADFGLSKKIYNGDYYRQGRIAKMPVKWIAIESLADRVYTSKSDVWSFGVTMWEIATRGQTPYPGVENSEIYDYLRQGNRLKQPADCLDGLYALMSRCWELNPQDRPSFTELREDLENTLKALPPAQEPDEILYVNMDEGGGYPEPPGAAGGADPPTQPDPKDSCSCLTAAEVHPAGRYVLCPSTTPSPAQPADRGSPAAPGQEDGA
Assay: Phospho-AKT in-cell Western assay (inhibition of Axl activity)
Format: cell-based
Conditions: Hela cells, Axl antibody cross-linking stimulation, phospho-Akt chemiluminescence normalized to relative cell number
Outline: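 HeLa cells were starved 24 h in 0.5% FCS with Axl/Fc 500 ng/mL, pre-treated with compound for 1 h at 37 °C, then stimulated 5 min by anti-Axl antibody cross-linking. Fixed cells were probed for phospho-AKT with an HRP-linked in-cell Western and read by chemiluminescence.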

SMILES	pIC50 (Table 3, formula (Ic))	pIC50 (Table 1, formula (Ia))
CN(C)CCN1CCOc2cc(Nc3ncc(Cl)c(N[C@@]4(C)[C@@H](C(=O)NCCO)C[C@H]5C[C@@H]4C5(C)C)n3)ccc21 [Compound 60, (1R,2R,3S,5R)-2-(5-chloro-2-((3,4-dihydro-4-(2-(dimethylamino)ethyl)-2H-benzo[b][1,4]oxazin-7-yl)amino)pyrimidin-4-ylamino)-N-(2-hydroxyethyl)-2,6,6-trimethylbicyclo[3.1.1]heptane-3-carboxamide]	> 6.00	
CCN(CC)C1CCN(c2ccc(Nc3ncc(Cl)c(N[C@@]4(C)[C@@H](C(=O)NC5CC5)C[C@H]5C[C@@H]4C5(C)C)n3)cc2F)CC1 [Compound 62, (1R,2R,3S,5R)-2-(5-chloro-2-(3-fluoro-4-(4-(diethylamino)piperidin-1-yl)phenylamino)pyrimidin-4-ylamino)-N-cyclopropyl-2,6,6-trimethylbicyclo[3.1.1]heptane-3-carboxamide]		> 6.00

Results, then the compound that gave them:

pIC50 (Table 3, formula (Ic))	pIC50 (Table 1, formula (Ia))	SMILES
	> 6.00	CC1(C)[C@H]2C[C@H](C(=O)NC3CC3)[C@](C)(Nc3nc(Nc4ccc(OCCN5CCCC5)cc4)ncc3Cl)[C@@H]1C2 [Compound 61, (1R,2R,3S,5R)-2-(5-chloro-2-(4-(2-(pyrrolidin-1-yl)ethoxy)phenylamino)pyrimidin-4-ylamino)-N-cyclopropyl-2,6,6-trimethylbicyclo[3.1.1]heptane-3-carboxamide]
	> 6.00	CC(C)NC(=O)[C@H]1C[C@H]2C[C@H](C2(C)C)[C@@]1(C)Nc1nc(Nc2ccc(OCCN3CCCC3)cc2)ncc1Cl [Compound 63, (1R,2R,3S,5R)-2-(5-chloro-2-(4-(2-(pyrrolidin-1-yl)ethoxy)phenylamino)pyrimidin-4-ylamino)-N-(1-methylethyl)-2,6,6-trimethylbicyclo[3.1.1]heptane-3-carboxamide]
> 6.00		CC(C)NC(=O)[C@H]1C[C@H]2C[C@H](C2(C)C)[C@@]1(C)Nc1nc(Nc2ccc3c(c2)OCCN3CCN(C)C)ncc1Cl [Compound 64, (1R,2R,3S,5R)-2-(5-chloro-2-((3,4-dihydro-4-(2-(dimethylamino)ethyl)-2H-benzo[b][1,4]oxazin-7-yl)amino)pyrimidin-4-ylamino)-N-(1-methylethyl)-2,6,6-trimethylbicyclo[3.1.1]heptane-3-carboxamide]
